Measurements from patent US10813906B2, “Use of ferrous amino acid chelate to treat infection by enteropathogen and to enhance growth performance” (Profeat Biotechnology Co., Ltd., priority 2018, dated 2020).

Legend:
[1] = Growth performance of chickens fed mixed feed for 12 weeks; type: in vivo, Taiwan black-feather country chickens; settings: for Body weight: mean ± S.D., 20 g of Fe per 1000 kg of mixed feed; for ADG (average daily gain) / FE (feed efficiency, ratio of total feed intake to total body weight): Week 12, 20 g of Fe per 1000 kg of mixed feed
Source text: The experimental chickens were randomly divided into a control group and an experimental group (n=40/group), and each group was placed in a pen with a size of 6.5 m^2. Water was provided ad libitum for all of the experimental chickens. […] The mixed feed supplied to the control group was made from a basal diet and a ferrous sulfate (20 g of Fe per 1000 kg of the mixed feed). The mixed feed supplied to the experimental group was made from the basal diet and the ferrous amino acid chelate prepared as described in the section, entitled “1. […] The body weight of each chicken was determined before and after supply of the mixed feed. Subsequently, average daily gain (ADG) of the chickens in each group was calculated based on the body weight and the feed intake. Feed efficiency (FE) defined as a ratio of total feed intake to total body weight was also calculated. The experimental data were analyzed via Student's t-test so as to assess the difference between the test groups. Statistical significance is indicated by p<0.05.

Coccidia = Coccidia infestation in chickens, microscopic observation of feces; type: in vivo, Taiwan black-feather country chickens; settings: Week 6
Source text: The experimental chickens were randomly divided into a control group and an experimental group (n=40/group), and each group was placed in a pen with a size of 6.5 m^2. Water was provided ad libitum for all of the experimental chickens. […] The mixed feed supplied to the control group was made from a basal diet and a ferrous sulfate (20 g of Fe per 1000 kg of the mixed feed). The mixed feed supplied to the experimental group was made from the basal diet and the ferrous amino acid chelate prepared as described in the section, entitled “1. […] Moreover, during supply of the mixed feed, fifteen chickens were randomly chosen at a designated time point to collect the feces from the cloaca thereof using cotton swabs. Coccidia infestation is determined by microscopic observation of the obtained feces sample.

[2] = Growth performance of postweaning piglets fed mixed feed for 8 weeks; type: in vivo; settings: for ADFI (average daily feed intake) / ADG (average daily gain) / FE (feed efficiency, ratio of ADFI to ADG) / Total feed intake: age 4 to 12 weeks; for Body weight: mean ± S.D.; for Total feed intake: whole group
Source text: About 1000 male piglets and 1000 female piglets (purchased from HAIFUNG ranch, Yunlin County, Taiwan and bred in the nursery) were used in the following experiment. The experimental piglets were randomly divided into an experimental group and a control group, and sufficient water and feed were supplied to the experimental piglets. […] The mixed feed supplied to the experimental group was made from the basal diet and the ferrous amino acid chelate prepared as described in the section, entitled “1. […] Subsequently, average daily gain (ADG) and average daily feed intake (ADFI) of the postweaning piglets in each group were calculated based on the body weight and the total feed intake. Feed efficiency (FE) defined as a ratio of ADFI to ADG was also calculated. The experimental data were expressed as mean±S.D., and were analyzed via Student's t-test so as to assess the difference between the test groups. Statistical significance is indicated by p<0.05.

Escherichia coli = test: Enteropathogen infection in chickens, real time PCR of feces: Escherichia coli; type: in vivo, Taiwan black-feather country chickens; settings: Week 10, feces from cloaca
Salmonella spp. = test: Enteropathogen infection in chickens, real time PCR of feces: Salmonella spp.; type: in vivo, Taiwan black-feather country chickens; settings: Week 10, feces from cloaca
Source text: Taiwan black-feather country chickens (1 day of age) were purchased from Animal Research Farm in National Chia-Yi University (Taiwan), and were raised in a farm under the guidelines of Animal Care Committee of the Council of Agriculture, Taiwan. The experimental chickens were randomly divided into a control group and an experimental group (n=40/group), and each group was placed in a pen with a size of 6.5 m^2. Water was provided ad libitum for all of the experimental chickens.
Each of the experimental chickens was fed with a mixed feed for 12 weeks at a dose of 0.1 kg per day. The mixed feed supplied to the control group was made from a basal diet and a ferrous sulfate (20 g of Fe per 1000 kg of the mixed feed). The mixed feed supplied to the experimental group was made from the basal diet and the ferrous amino acid chelate prepared as described in the section, entitled “1. Preparation of ferrous amino acid chelate” of the “General Experimental Materials” (20 g of Fe per 1000 kg of the mixed feed).
Moreover, during supply of the mixed feed, fifteen chickens were randomly chosen at a designated time point to collect the feces from the cloaca thereof using cotton swabs.
In addition, the obtained feces were subjected to nucleic acid extraction with Taco™ DNA/RNA Extraction Kit (GeneReach Biotechnology Corp) according to the manufacturer's instructions. […]

Clostridium perfringens = type: in vivo, Taiwan black-feather country chickens; settings: Week 6; feces from cloaca, real time PCR
[3] = Week 0 (before supply of the mixed feed)
[4] = age 4 weeks (at weaning, start of the mixed feed)
[5] = age 12 weeks, after 8 weeks of mixed feed (basal diet:iron source 1000:1)

## ferrous glycinate chelate [ferrous amino acid chelate]
[1]; [3]
  Body weight: 32.48 ± 3.49 g
[1]
  ADG (average daily gain): 25.44 g/day per chicken
  FE (feed efficiency, ratio of total feed intake to total body weight): 3.59
[1]; Week 12 of mixed feed
  Body weight: 2143.71 ± 250.23 g
Coccidia
  Enteropathogen infection, Coccidia (percentage of infection among 15 selected chickens): 33%
[2]
  ADFI (average daily feed intake): 0.78 kg/day per piglet
  ADG (average daily gain): 0.40 kg/day per piglet
  FE (feed efficiency, ratio of ADFI to ADG): 1.93
  Total feed intake: 36,500 kg
[2]; [4]
  Body weight: 9.08 ± 0.94 kg
[2]; [5]
  Body weight: 32.84 ± 4.01 kg
Escherichia coli
  Enteropathogen infection, Escherichia coli (percentage of infection among 15 selected chickens): 27%
Salmonella spp.
  Enteropathogen infection, Salmonella spp. (percentage of infection among 15 selected chickens): 53%
Clostridium perfringens
  Enteropathogen infection, Clostridium perfringens (percentage of infection among 15 selected chickens): 0%

## ferrous sulfate
[1]; [3]
  Body weight: 31.06 ± 2.94 g
[1]
  ADG (average daily gain): 23.3 g/day per chicken
  FE (feed efficiency, ratio of total feed intake to total body weight): 3.88
[1]; Week 12 of mixed feed
  Body weight: 1965 ± 194.44 g
Coccidia
  Enteropathogen infection, Coccidia (percentage of infection among 15 selected chickens): 100%
[2]
  ADFI (average daily feed intake): 0.85 kg/day per piglet
  ADG (average daily gain): 0.30 kg/day per piglet
  FE (feed efficiency, ratio of ADFI to ADG): 2.80
  Total feed intake: 33,255 kg
[2]; [4]
  Body weight: 8.40 ± 1.17 kg
[2]; [5]
  Body weight: 28.00 ± 4.28 kg
Escherichia coli
  Enteropathogen infection, Escherichia coli (percentage of infection among 15 selected chickens): 93%
Salmonella spp.
  Enteropathogen infection, Salmonella spp. (percentage of infection among 15 selected chickens): 93%
Clostridium perfringens
  Enteropathogen infection, Clostridium perfringens (percentage of infection among 15 selected chickens): 33%
